Measured values reported in US11186585B2 (priority 2018, dated 2021).
Where “and” joins values, the source holds several entries; their conditions need not be identical. Identical values can stand only once. Counter-ions that a name gives are not always drawn.

Tests used:
[1] = Stability in the simulated gastro-intestinal fluid (sGIF); conditions: 0.5% pepsine in 0.1N aqueous HCl, 37° C.; acceptance: NLT 80% of the derivative still intact after 4 hrs
Sprague-Dawley rats = assay: Antinociceptive activity, cold ethanol tail-flick test after oral gavage; format: in vivo, rat; conditions: for Analgesia (rat): oral gavage in sesame oil, 60 uM/kg, one dose, tail-flick at −20° C., cutoff 40 seconds; for analgesia in rats, in words: given orally, compared with equivalent dose of Nalbuphine (parent opioid)
[2] = Stability in human plasma; conditions: 37° C., acceptance criteria: NLT than 20% of hydrolysis after 4 hrs
rats = assay: Randall-Selitto test after SC dose; format: in vivo, rat; conditions: NB-33.HCl 3.9 mg/kg; for Randall-Selitto (g), individual animal: NB.HCl 3 mg/kg; for Randall-Selitto (g), Mean: mean of 5, NB.HCl 3 mg/kg
Description: FIG. 13 illustrate in the graphical form the results for 1310 NB-33, marked 1310, in comparison to the base NB compound NB, marked 1320 in FIG. 13.

| SMILES | Stable in sGIF [1] | Analgesia (rat) (Sprague-Dawley rats) | Stable in plasma [2] | analgesia in rats, in words (Sprague-Dawley rats) | also measured |
| --- | --- | --- | --- | --- | --- |
| CC(C)=CC(=O)Oc1ccc2c3c1OC1C(O)CCC4(O)C(C2)N(CC2CCC2)CCC314 (stereo not shown) [NB-51, 3-(cyclobutylmethyl)-4a,7-dihydroxy-2,3,4,4a,5,6,7,7a-octahydro-1H-4,12-methanobenzofuro[3,2-e]isoquinolin-9-yl 3-methylbut-2-enoate] | Yes | Inactive | No |  |  |
| CC(C)=CCC/C(C)=C/COc1ccc2c3c1OC1C(O)CCC4(O)C(C2)N(CC2CCC2)CCC314 (stereo not shown) [NB-20, (E)-3-(cyclobutylmethyl)-9-((3,7-dimethylocta-2,6-dien-1-yl)oxy)-1,2,3,4,5,6,7,7a-octahydro-4aH-4,12-methanobenzofuro[3,2-e]isoquinoline-4a,7-diol] | No | No | No |  |  |
| CC(C)=CCC/C(C)=C/C(=O)Oc1ccc2c3c1OC1C(O)CCC4(O)C(C2)N(CC2CCC2)CCC314 (stereo not shown) [NB-32, 3-(cyclobutylmethyl)-4a,7-dihydroxy-2,3,4,4a,5,6,7,7a-octahydro-1H-4,12-methanobenzofuro[3,2-e]isoquinolin-9-yl (E)-3,7-dimethylocta-2,6-dienoate] | Yes | Inactive | No | no analgesia |  |
| CC(C)C(=O)Oc1ccc2c3c1OC1C(O)CCC4(O)C(C2)N(CC2CCC2)CCC314 (stereo not shown) [NB-46, 3-(cyclobutylmethyl)-4a,7-dihydroxy-2,3,4,4a,5,6,7,7a-octahydro-1H-4,12-methanobenzofuro[3,2-e]isoquinolin-9-yl isobutyrate] | Yes | No | Yes |  |  |
| C=CCCCCCCCCC(=O)Oc1ccc2c3c1OC1C(O)CCC4(O)C(C2)N(CC2CCC2)CCC314 (stereo not shown) [NB-31, 3-(cyclobutylmethyl)-4a,7-dihydroxy-2,3,4,4a,5,6,7,7a-octahydro-1H-4,12-methanobenzofuro[3,2-e]isoquinolin-9-yl undec-10-enoate] | Yes | Inactive | No | no analgesia |  |
| O=C(/C=C/c1ccccc1)Oc1ccc2c3c1OC1C(O)CCC4(O)C(C2)N(CC2CCC2)CCC314 (stereo not shown) [NB-78, 3-(cyclobutylmethyl)-4a,7-dihydroxy-2,3,4,4a,5,6,7,7a-octahydro-1H-4,12-methanobenzofuro[3,2-e]isoquinolin-9-yl cinnamate] | Yes | Inactive | No | no analgesia |  |
| C/C=C/C=C/C(=O)Oc1ccc2c3c1OC1C(OC(C)=O)CCC4(O)C(C2)N(CC2CCC2)CCC314 (stereo not shown) [NB-76, 7-acetoxy-3-(cyclobutylmethyl)-4a-hydroxy-2,3,4,4a,5,6,7,7a-octahydro-1H-4,12-methanobenzofuro[3,2-e]isoquinolin-9-yl (2E,4E)-hexa-2,4-dienoate] | Yes | moderate | No |  |  |
| Oc1ccc2c3c1O[C@H]1[C@@H](O)CC[C@@]4(O)[C@@H](C2)N(CC2CCC2)CC[C@]314 [NB.HCl] |  |  |  |  | Randall-Selitto (g), individual animal (rats; Post-dose 0.5 hr): 78 g and 89 g and 93 g and 107 g and 134 g; Randall-Selitto (g), Mean (rats; Post-dose 0.5 hr): 100.2 g; Randall-Selitto (g), individual animal (rats; Post-dose 1 hr): 63 g and 62 g and 92 g and 90 g and 96 g; Randall-Selitto (g), Mean (rats; Post-dose 1 hr): 80.6 g; Randall-Selitto (g), individual animal (rats; Post-dose 2 hr): 58 g and 71 g and 103 g and 69 g and 93 g; Randall-Selitto (g), Mean (rats; Post-dose 2 hr): 78.8 g; Randall-Selitto (g), individual animal (rats; Post-dose 4 hr): 64 g and 66 g and 93 g (2×) and 61 g; Randall-Selitto (g), Mean (rats; Post-dose 4 hr): 75.4 g; Randall-Selitto (g), individual animal (rats; Post-dose 6 hr): 50 g and 71 g and 82 g and 69 g and 85 g; Randall-Selitto (g), Mean (rats; Post-dose 6 hr): 71.4 g; Randall-Selitto (g), individual animal (rats; Pre-treatment (baseline)): 89 g and 92 g and 100 g and 80 g and 91 g; Randall-Selitto (g), Mean (rats; Pre-treatment (baseline)): 90.4 g |
| C/C=C(\C)C(=O)Oc1ccc2c3c1OC1C(O)CCC4(O)C(C2)N(CC2CCC2)CCC314 (stereo not shown) [NB-52, 3-(cyclobutylmethyl)-4a,7-dihydroxy-2,3,4,4a,5,6,7,7a-octahydro-1H-4,12-methanobenzofuro[3,2-e]isoquinolin-9-yl (E)-2-methylbut-2-enoate] | Yes | Inactive | No | no analgesia |  |
| CC=C(OC)C(=O)Oc1ccc2c3c1OC1C(O)CCC4(O)C(C2)N(CC2CCC2)CCC314 (stereo not shown) [NB-58, 3-(cyclobutylmethyl)-4a,7-dihydroxy-2,3,4,4a,5,6,7,7a-octahydro-1H-4,12-methanobenzofuro[3,2-e]isoquinolin-9-yl 2-methoxybut-2-enoate] | No | No | No |  |  |
| CC(C)=CCC/C(C)=C/CC/C(C)=C/COc1ccc2c3c1OC1C(O)CCC4(O)C(C2)N(CC2CCC2)CCC314 (stereo not shown) [NB-28, 3-(cyclobutylmethyl)-9-(((2E,6E)-3,7,11-trimethyldodeca-2,6,10-trien-1-yl)oxy)-1,2,3,4,5,6,7,7a-octahydro-4aH-4,12-methanobenzofuro[3,2-e]isoquinoline-4a,7-diol] | No | No | No |  |  |
